Test results from patent US20130101680A1, “RADIOTHERAPY ENHANCER” (priority 2006, published 2013).

Assays:
[1] = No-observed adverse effect level / maximum nontoxic dose in mice; conditions: as 5-FU; PAN-4 tumor-transplanted mouse, intravenous on days 1 and 8
[2] = system: human pancreatic cancer strain PAN-4; assay: Tumor growth inhibition by S-1, 5-FU or gemcitabine and X-ray, human pancreatic cancer strain PAN-4 in nude mice (Test Example 3); assay type: in vivo, human (in BALB/cA-nu mouse); conditions: for radiotherapy enhancing effect (combination with X-ray), in words: combination with X-ray 2 Gy, PAN-4
Experimental: (b) Preparation of test solution II: 5-fluorouracil (5-FU: Wako Pure Chemical Industries, Ltd.) was dissolved in physiological saline at a concentration of 1.5 mg/mL and sterilized by filtration with a 0.45-micron Millipore filter to obtain a drug solution of 15 mg/kg as 5-FU.
(c) Preparation of test solution 3: Gemcitabine (2′-difluoro-2′,3′-dideoxycytidine: Sigma) was dissolved in physiological saline at a concentration of 5 mg/mL and sterilized by filtration with a 0.45-micron Millipore filter to obtain a drug solution of 50 mg/kg as gemcitabine.
(d) Radiation (X-ray) irradiation method: Local irradiation was performed on a human tumor strain transplanted into the right femoral region of the mouse using MBR-1505R Type 2 X-ray Irradiation System of Hitachi Medical Corporation under an irradiation condition (irradiation position) so that exposure per mouse should be 2 Gy or 5 Gy. To prevent systemic irradiation, mice were placed in a storage box made of lead so that only their right leg should be exposed to radiation.
(e) Test: The human pancreatic cancer strain (PAN-4) subcutaneously transplanted into the back of a BALB/cA-nu mouse and grown beforehand was removed, cut into small fragments of about 2×2 mm^2 with scissors in physiological saline, and subcutaneously transplanted into the right femoral region of 5 or 6-week-old mice of the same strain with a transplantation needle. The mice were prebred for at least 1 to 2 weeks and divided into the control group, the radiation alone group, the drug alone group, and the drug plus radiation group, so that the tumor volume and standard deviation (S.D.) in each group (n=6 per group) should be as uniform as possible. Then, drug administration and X-ray irradiation were initiated. […] For 5-FU and gemcitabine, the drug treatment group was administered intravenously with 0.1 mL of the above-described 5-FU and gemcitabine drug solutions per body weight 10 g using a syringe for intravenous infusion on days 1 and 8. The radiation group was irradiated with 2 Gy or 5 Gy of X-ray in the above-described manner within about 1 hour after administration of each drug solution on day 1, at the start of the test, and on day 8. Tumor-bearing mice in the control group (non-radiation/non-drug treatment group) and the radiation alone group were orally administered with 0.5% HPMC solution alone in the same manner for 14 consecutive days.
By using the above-mentioned numerical formula 1, the tumor volume of each mouse in each group was obtained prior to the start of treatment experiment, on days 3, 5, 8 (1 week later) and 11 during the treatment period, and days 15 (2 weeks later), 18, 22 (3 weeks later), 25, and 29 (4 weeks later) after completion of treatment. For the PAN-4 strain, a relative tumor volume (RTV) to the tumor volume at the start was obtained. The mean tumor growth inhibition rate (%) in each treatment group based on the control group was obtained by using the above-mentioned numerical formula 2 on days 15, at the end of the treatment period, 22, and 29 and shown in Table 4.

[3] = BALB/cA-nu, mouse, in vivo, iv
[4] = system: human lung cancer LC-11 strain; assay: X-ray irradiation enhancing effect of cisplatin, human lung cancer LC-11 strain in nude mice (Comparative Example 1); assay type: in vivo, human (in BALB/cA-nu mouse)
Experimental: (a) Preparation of test solution I: The cisplatin solution (0.5 mg/mL) available from Bristol-Myers Squibb Company was used as it was. 0.1 mL per mouse body weight 10 g was administered for the dose of cisplatin 5 mg/kg, and […] per mouse body weight 10 g was administered for the dose of 7.5 mg/kg.
(b) Radiation (X-ray) irradiation method: Local irradiation was performed on a human tumor strain transplanted into the right femoral region of the mouse using MBR-1505R Type 2 X-ray Irradiation System of Hitachi Medical Corporation under an irradiation condition (irradiation position) so that exposure per mouse should be 2 Gy or 5 Gy. To prevent systemic irradiation, mice were placed in a storage box made of lead so that only their right leg should be exposed to radiation.
(c) Test: The human lung cancer LC-11 strain subcutaneously transplanted into the back of a BALB/cA-nu mouse and grown beforehand were removed, cut into small fragments of about 2×2 mm^2 with scissors in physiological saline, and subcutaneously transplanted into the right femoral region of 5 to 6-week-old mice of the same strain with a transplantation needle. The mice were bred for at least 1 to 2 weeks and divided into the control group, the radiation alone group, the drug alone group, and the drug plus radiation group, so that the tumor volume and standard deviation (S.D.) in each group (n=6 per group) should be as uniform as possible. Then, drug administration and X-ray irradiation were initiated. For the drug treatment group, 0.1 mL per body weight 10 g of a cisplatin solution for the dose of 5 mg/kg or […] per body weight 10 g of this solution for the dose of 7.5 mg/kg was administered into the caudal vein on day 1. The radiation group was irradiated with 2 Gy of X-ray in the above-described manner on day 1, at the start of the test, and on day 8. For tumor-bearing mice in the control group (non-radiation/non-drug treatment group) and the radiation alone group, physiological saline was administered into the caudal vein on day 1.
By using the above-mentioned numerical formula 1, the tumor volume of each mouse in each group was obtained prior to the start of treatment experiment, on days 3, 5, 8 (1 week later) and 11 during the treatment period, and days 15 (2 weeks later), 18, 22 (3 weeks later), 25, and 29 (4 weeks later) after completion of treatment. A relative tumor volume (RTV) to the tumor volume at the start of the test was obtained for each mouse. Then, the mean tumor growth inhibition rate (IR; %) in each treatment group based on the control group was obtained by using the above-mentioned numerical formula 2 on day 15, at the end of the treatment period, and on day 29, at 4 weeks later, and shown in Table 3.

[5] = 5-FU 15 mg/kg i.v. days 1 and 8 + X-ray 2 Gy
[6] = 5-FU 15 mg/kg i.v. days 1 and 8, alone
[7] = Gemcitabine 50 mg/kg i.v. days 1 and 8 + X-ray 2 Gy
[8] = Gemcitabine 50 mg/kg i.v. days 1 and 8, alone
[9] = CDDP 5.0 mg/kg i.v. day 1 + X-ray 2 Gy
[10] = CDDP 5.0 mg/kg i.v. day 1, alone
[11] = CDDP 7.5 mg/kg i.v. day 1 + X-ray 2 Gy
[12] = CDDP 7.5 mg/kg i.v. day 1, alone

With `O=c1[nH]cc(F)c(=O)[nH]1` [5-FU, 5-fluorouracil] the maximum nontoxic dose [1] was 15 mg/kg, the “Tumor growth inhibition rate (IR) (%) Day 15” value [2, 5] was 15.8% and the “Tumor growth inhibition rate (IR) (%) Day 22” value [2, 5] was 27.5%. For the same molecule, the “Tumor growth inhibition rate (IR) (%) Day 29” value [2, 5] was 36.9%, the “Tumor growth inhibition rate (IR) (%) Day 15” value [2, 6] was 12.4% and the “Tumor growth inhibition rate (IR) (%) Day 22” value [2, 6] was 16.8%. The “Tumor growth inhibition rate (IR) (%) Day 29” value [2, 6] was 29.2% and the “radiotherapy enhancing effect (combination with X-ray), in words” value (shortened to “radiotherapy enhancing effect”) [2] was “did not show marked effect of the combination use”.

For `Nc1ccn([C@@H]2O[C@H](CO)[C@@H](O)C2(F)F)c(=O)n1` [Gemcitabine], the “no-observed adverse effect level” value [3] was 50 mg/kg, the “Tumor growth inhibition rate (IR) (%) Day 15” value [2, 7] was 40.0% and the “Tumor growth inhibition rate (IR) (%) Day 15” value ([2]; Gemcitabine 50 mg/kg i.v. days 1 and 8 + X-ray 2 Gy, listed as gemcitabine) was 40%. For the same molecule, the “Tumor growth inhibition rate (IR) (%) Day 22” value [2, 7] was 62.3%, the “Tumor growth inhibition rate (IR) (%) Day 29” value [2, 7] was 63.9% and the “Tumor growth inhibition rate (IR) (%) Day 15” value [2, 8] was 39.8%. For the same molecule, the “Tumor growth inhibition rate (IR) (%) Day 22” value [2, 8] was 51.1%, the “Tumor growth inhibition rate (IR) (%) Day 29” value [2, 8] was 51.1% and the “radiotherapy enhancing effect” value [2] was “did not show a strong effect of the combination use”.

With `N.N.[Cl][Pt][Cl]` [cisplatin] the “IR (%) Day 15” value [4, 9] was 53.8%, the “IR (%) Day 29” value [4, 9] was 46.8% and the “IR (%) Day 15” value [4, 10] was 39.9%. For the same molecule, the “IR (%) Day 29” value [4, 10] was 45.6%, the “IR (%) Day 15” value [4, 11] was 54.6% and the “IR (%) Day 29” value [4, 11] was 66.8%. The “IR (%) Day 15” value [4, 12] was 55.8%, the “IR (%) Day 29” value [4, 12] was 60.2% and the “radiotherapy enhancing effect” value ([4]; cisplatin 5 mg/kg or 7.5 mg/kg with X-ray 2 Gy, LC-11) was “did not notably enhance antitumor effects compared with treatment with cisplatin alone”.
